From patent US9068231B2, “Method for screening cancer therapeutic agent using galectin-3, GSK-3β, and fascin-1” (National Cancer Center, priority 2010, dated 2015) come the findings set out here.

What all share (type): cell-based, human
One series concerns β-catenin/TCF-4. Description: Immunoprecipitation and Western blot of GSK-3β, β-catenin and TCF-4 interaction. Conditions: MKN-28 cells, immunoprecipitation. The procedure:
(§1) Whole-cell lysate was used as a positive control. […] Whole-cell lysates were used as a positive control. (C) Chromatin immunoprecipitation assay was performed as described in the Materials and Methods of the Example section. Total genomic DNA on an input lane was used as a control for the PCR reaction. (D) Luciferase activity of TCF4 in lacZ and galectin-3 overexpressing cells. Luciferase assay was performed as described in the Example section. A construct of SP1 consensus was used as a negative control. […] Lamin A/C was used as a nuclear fraction control;
(§2) For use in Western blotting and immunoprecipitation, cell lysates were prepared in RIPA buffer containing a protease inhibitor cocktail. Immunoblotting was performed with anti-galectin-3, anti-fascin-1, anti-GSK-3β, anti-TCF-4 (Santa-Cruz), anti-GSK-3β[pS^[…]] (biosourse), anti-β-catenin and anti-lamin A/C (Cell-Signaling), and anti-β-actin (Sigma). Immunoprecipitation was performed with A/G agarose beads coated with anti-galectin-3 and anti-β-catenin. Proteins were detected by Western Blotting with anti-galectin-3, anti-β-catenin, anti-GSK-3β and anti-TCF-4. Mouse/rabbit IgG was used as a negative control.

For series [1], the system named is MKN-28 cells. Description: Wound healing assay. On the procedure:
(§3) Transfilter migration and invasion assays were performed with 8.0-μm pore inserts in a 24-well Transwell. For this assay, MKN-28 and SNU638 cells were transfected overnight with siRNAs. Then, they were isolated and added to the upper chamber of a Transwell with 0.5 mg/mL collagen type 1 (BD Bioscience)-coated filters in migration assay. The invasion assay was performed using 1/15 diluted Matrigel (BD Bioscience)-coated filters at 2×10^4 cells/well. RPMI 1640 supplemented with 10% fetal bovine serum and 1% antibiotics was added to the lower chamber and the cells were allowed to incubate for 20 hours. Migrating and invading cells were quantified after H&E staining. Each experiment was performed in triplicate and mean values are presented. A wound healing assay was performed according to the published protocol (Liang C C, Park A Y, Guan J L. In vitro scratch assay: a convenient and inexpensive method for analysis of cell migration in vitro. Nat Protoc 2007; 2:329-33).

Series [2] deals with fascin-1. Put plainly: RT-PCR and Western blotting of fascin-1 after siRNA transfection in MKN-28 cells. The procedure: (A) mRNA and protein levels of galectin-3 and fascin-1 in human gastric cancer MKN-28 cells after transfection with scrambled siRNA (scRNA) or galectin-3 siRNA at two different concentrations (5 and 10 nmol/L). Total RNA and protein obtained from the cells harvested 48 hrs after the transfection were analyzed by RT-PCR and Western blotting. β-actin was used as a loading control. (B) Immunocytochemical analysis of scRNA or galectin-3 siRNA-transfected MKN-28 cells by DAPI (blue), anti-fascin-1 FITC (green) and anti-F-actin Texas Red (red) was detected with a confocal microscope. Bars represent a length of 10 μm. (C and D) A histogram depicting the migration of galectin-3 silenced cells. […] (E) Expression levels of galectin-3 and fascin-1 in SNU-638 cells were determined by Western blotting after transfection with pcDNA3.1/NT-GFP-Galectin-3 and vector control of pcDNA3.1/NT-GFP. β-actin was used as a loading control;
(A) Fascin-1 protein expression in MKN-28 cells transfected with scrambled siRNA (scRNA) or fascin-1 siRNA. β-actin was used as a loading control. […] Cell migration was measured by microscopy; […]
(§4) For use in Western blotting and immunoprecipitation, cell lysates were prepared in RIPA buffer containing a protease inhibitor cocktail. […] Proteins were detected by Western Blotting with anti-galectin-3, anti-β-catenin, anti-GSK-3β and anti-TCF-4. […]

In series [3] the test system is phosphorylated GSK-3β, β-catenin. Put plainly: Western blotting of nuclear and cytosol fractions. Conditions: MKN-28 cells. On the procedure: as §1, §2
Another series has as its system fascin-1 promoter. Put plainly: Chromatin immunoprecipitation assay on fascin-1 promoter. Conditions: ChIP assay, with or without galectin-3. The procedure:
as §1
Chromatin immunoprecipitation assays were performed using a chIP assay kit (Upstate), according to the manufacturer's instructions. Anti-TCF4, anti-β-catenin, anti-galectin-3, and rabbit IgG were used to immunoprecipitate DNA-containing complexes. Primer was prepared with fascin-1 promoter binding sites: fascin-1 promoter (−1321), 5′-[…]-3′ (SEQ ID NO. 11) and (−1061) 5′-[…]-3′ (SEQ ID NO. 12), followed by performing PCR.

Series [4] deals with MKN-28 cells. Description: Invasion assay (Matrigel-coated filters). Conditions: 20 hours. The procedure:
as §3

Series [5] has as its system MKN-28 cells. Description: Colony formation (soft agar growth) assay. Conditions: 3 weeks. On the procedure:
A layer of 0.5 mL RPMI 1640 containing 0.5% agar and 5% fetal bovine serum was placed in 24-well plates. After solidification of this bottom layer, cells transfected with galectin-3 and fascin-1 siRNAs (1.25×10^4 per well) were poured into a top layer of 0.25 mL RPMI 1640 containing 0.3% agar and 5% fetal bovine serum. Colonies were scored by microscopic examination after 3 weeks. All samples were prepared in triplicate.

Series [6] deals with MKN-28 cells. Description: Immunocytochemistry (fascin-1, F-actin, cell morphology). Conditions: confocal microscopy. The procedure:
(§5) (A) mRNA and protein levels of galectin-3 and fascin-1 in human gastric cancer MKN-28 cells after transfection with scrambled siRNA (scRNA) or galectin-3 siRNA at two different concentrations (5 and 10 nmol/L). Total RNA and protein obtained from the cells harvested 48 hrs after the transfection were analyzed by RT-PCR and Western blotting. β-actin was used as a loading control. (B) Immunocytochemical analysis of scRNA or galectin-3 siRNA-transfected MKN-28 cells by DAPI (blue), anti-fascin-1 FITC (green) and anti-F-actin Texas Red (red) was detected with a confocal microscope. Bars represent a length of 10 μm. (C and D) A histogram depicting the migration of galectin-3 silenced cells. The results of the migration assay are presented with a statistical significance (P<0.0005) (C), and in cell photographs (D). (E) Expression levels of galectin-3 and fascin-1 in SNU-638 cells were determined by Western blotting after transfection with pcDNA3.1/NT-GFP-Galectin-3 and vector control of pcDNA3.1/NT-GFP. β-actin was used as a loading control;
(A) Fascin-1 protein expression in MKN-28 cells transfected with scrambled siRNA (scRNA) or fascin-1 siRNA. β-actin was used as a loading control. (B) Immunocytochemical analysis of MKN-28 cells transfected with scRNA or fascin-1 siRNA by DAPI (blue), anti-fascin-1 FITC (green) and anti-F-actin Texas Red (red) was conducted using confocal microscopy. Bars represent 10 μm in length. (C) Cell migration in fascin-1-silenced MKN-28 cells. Results of the migration assay are presented as a histogram, with statistical significance (P<0.0004). ([…]) (D) Colony formation assay, (E) invasion assay, and (F) wound healing assay of MKN-28 cells were performed with transfected galectin-3 and fascin-1 siRNAs. Results of the colony formation assay and invasion assay are shown as a histogram, with statistical significance (P<0.0005). Cell migration was measured by microscopy;
(§6) Cells cultured in chamber slides were fixed and blocked with 5% bovine serum albumin (BSA) in PBS and then incubated with primary anti-galectin-3, anti-fascin-1, anti-GSK-3β, anti-β-catenin antibodies diluted (1:200) in PBS. The cells were conjugated with the secondary antibodies labeled with FITC, Cy5 (Zymed), or Texas Red-X phalloidin (Invitrogen). The samples were treated with a mounting medium, and analyzed with a confocal microscope (Carl-Zeiss).

For the next series, the system named is GSK-3β, β-catenin. Description: Immunocytochemistry of GSK-3β and β-catenin localization. Conditions: galectin-3-silenced cells, confocal microscope. The procedure: DAPI was used to figure out the nucleus (blue). Bars represent a 10 μm length;
as §6

In series [7] the test system is MKN-28 cells. Description: Transfilter migration assay. Conditions: 20 hours, collagen type 1-coated filters. The procedure:
as §3

A further series has as its system galectin-3. Put plainly: RT-PCR and Western blotting of galectin-3 after siRNA transfection. Conditions: MKN-28 cells, siRNA 5 and 10 nmol/L, 48 hrs after transfection. The procedure: as §5, with “control; […]” for “control;”
as §4

Series [8] relates to fascin-1. Description: Western blot of fascin-1 in galectin-3-overexpressing SNU638 cells. Conditions: SNU638 cells infected with galectin-3 lenti-virus. The procedure:
(§7) (A) Expression levels of galectin-3 and fascin-1 were detected by Western blot analysis in SNU-638 cells which were infected with a lenti-virus containing LacZ or galectin-3 and then transfected with fascin-1 siRNA or scrambled RNA as a negative control. β-actin was used as a loading control. (B and C) These cells were analyzed by migration assay (B) and invasion assay (C), presented as histograms (P<0.0005);
as §2
The full-length human galectin-3 gene cloned in the expression vector pcDNA3.1-NT-GFP-gal3 was amplified by PCR using a primer set of 5′-[…]-3′ (SEQ ID NO. 13) and 5′-[…]-3′ (SEQ ID NO. 14). The PCR product thus obtained was cloned into pcDNA3.1-NT-GFP using the TA cloning method (Invitrogen). […]
(In general: Immunoblotting shows a protein as a band on a membrane.)

In series [9] the test system is SNU638 cells. Put plainly: Transfilter migration assay in galectin-3-overexpressing SNU638 cells. Conditions: SNU638 cells infected with galectin-3 lenti-virus. On the procedure: as §7, §3
Series [10] relates to SNU638 cells. Put plainly: Invasion assay in galectin-3-overexpressing SNU638 cells. Conditions: SNU638 cells infected with galectin-3 lenti-virus. The procedure: as §7, §3

As for “5′-AUAUGAAGCACUGGUGAGGUCUAUG-3′ (listed as RNA, chemistry not given here) [galectin-3 siRNA, siRNA silencing galectin-3, obtained from Invitrogen]”, in the series with β-catenin/TCF-4, the “interaction between GSK-3β and β-catenin” value is “weakened”; the “interaction between β-catenin and TCF-4” value was “diminished”. Further, in the series on MKN-28 cells [1], the wound healing entry is “significantly reduced”. Further, in the series on fascin-1 [2] (galectin-3 siRNA 5 and 10 nmol/L, 48 hrs after transfection), the “expression levels of mRNAs and proteins of fascin-1” value is recorded as “reduction in the expression levels”. In [3], the “level of phosphorylated GSK-3β” value is “decreased in both the nucleus and the cytosol”; the “level of β-catenin” value is “decreased in both the nucleus and the cytosol”. Further, the “binding of β-catenin and TCF-4 to the promoter regions of fascin-1” value with fascin-1 promoter is recorded as “lost their binding activity”. For the same substance, in the series on MKN-28 cells [4], the cell invasion result is “significantly reduced”. For the same substance, the colony formation entry with MKN-28 cells [5] was “significantly reduced”. Moreover, in the series on MKN-28 cells [6], the F-actin localization entry was “appeared only at cell-cell contact areas”; the cell morphology result is “became round in shape and did not have any protruding regions”; the “fascin-1 expression in the cytosol (immunocytochemistry)” value is given as “diminished in the cytosol”. In the series on GSK-3β, β-catenin, the “localization of GSK-3β” value is given as “located only in cytosol” and the “localization of β-catenin” value is reported as “not detected either in the nucleus or cytosol”. In the series on MKN-28 cells [7], the “total number of migrated cells / cell migration” value is “reduced by almost half”. For the same substance, the “expression levels of mRNAs and proteins of galectin-3” value in the series with galectin-3 is recorded as “reduction in the expression levels”.

Take “5′-UCCAGCAAGAAUGCCAGCUGCU ACU-3′ (listed as RNA, chemistry not given here) [fascin-1 siRNA, siRNA silencing fascin-1, obtained from Invitrogen; called a candidate therapeutic agent]”: in the series with fascin-1 [8], the “level of fascin-1 protein” value is given as “diminished”. Also, the wound healing result in the series with MKN-28 cells [1] was “significantly reduced”. In addition, the fascin-1 protein expression entry in the series with fascin-1 [2] (fascin-1 siRNA, Western blot) is “reduced fascin-1 expression”. Further, in the series on MKN-28 cells [4], the cell invasion result was “significantly reduced”. Besides, the colony formation result in the series on MKN-28 cells [5] is listed as “significantly reduced”. Besides, the “cell migration increased by galectin-3 overexpression” value in the series with SNU638 cells [9] is “significantly reduced”. For the same substance, in the series with SNU638 cells [10], the “cell invasion by galectin-3 overexpression” value was “inhibitory effect”. In the series with MKN-28 cells [6], the F-actin localization entry was “appeared only in cell-cell contact areas” and the cell morphology entry was “changed to a round shape without spikes”. Besides, the “total number of migrated cells / cell migration” value in the series on MKN-28 cells [7] is “decreased the migration”.
